Activity calls are given as the source filed them. No cut-off for these calls is given here.
Assays:
[1] = test system: HeLa; experiment: Cytotoxicity against human HeLa cells assessed as reduction in cell viability incubated for 1 hr by MTT assay; type: functional, cell-based
[2] = test system: HeLa; experiment: Induction of membrane lysis in human HeLa cells assessed as loss of membrane integrity at cytotoxic IC50 level incubated for 15 mins by Propidium iodide staining based confocal laser scanning microscopy relative to control; type: functional
[3] = test system: HeLa; experiment: Induction of membrane lysis in human HeLa cells assessed as increase in number of enlarged outward budding vesicles at cytotoxic IC50 level incubated for 15 mins by annexin V-FITC and by propidium iodide staining; type: functional, cell-based
[4] = Drug localization in mitochondria of human HeLa cells using FITC-labeled compound at cytotoxic IC50 level incubated for 30 mins by Mito-tracker red dye based confocal laser scanning microscopy; conditions: 0.5 h
[5] = Drug localization in endoplasmic reticulum of human HeLa cells using FITC-labeled compound at cytotoxic IC50 level incubated for 30 mins by ER-tracker red dye based confocal laser scanning microscopy; type: subcellular; conditions: 0.5 h
[6] = test system: HeLa; experiment: Induction of oxidative stress in human HeLa cells assessed as increase in reactive oxygen species at cytotoxic IC50 level incubated for 15 mins by CellROX deep red reagent based flow cytometry; type: functional, cell-based
[7] = test system: HeLa; experiment: Suppression of mitochondrial membrane potential in human HeLa cells at cytotoxic IC50 level incubated for 15 mins by rhodamine 123 dye based flow cytometry; type: functional, cell-based
[8] = test system: HeLa; experiment: Induction of apoptosis in human HeLa cells assessed as increase in caspase 3/7 activity at cytotoxic IC50 level using Ac-DEVD- pNA substrate incubated for 15 to 60 mins; type: functional, cell-based
[9] = Drug localization in lysosome of human HeLa cells using FITC-labeled compound at cytotoxic IC50 level incubated for 30 mins by Lysotracker red dye based confocal laser scanning microscopy; type: subcellular; conditions: 0.5 h
[10] = Drug localization in nucleoli of human HeLa cells using FITC-labeled compound at cytotoxic IC50 level incubated for 30 mins by confocal laser scanning microscopy; type: subcellular; conditions: 0.5 h
[11] = test system: HeLa; experiment: Cytotoxicity against human HeLa cells assessed as reduction in cell viability at 4 degC at 1 to 16 uM incubated for 1 hr by MTT assay; type: functional, cell-based
[12] = Self aggregation up to 128 uM in PBS buffer by ANS fluorescent probe based aggregate incorporation assay; type: physicochemical
[13] = Self aggregation assessed as formation of nano fibers of varying lengths at 32 uM by atomic force microscopy; type: physicochemical
[14] = Induction of hemolysis in human erythrocytes assessed as hemoglobin release incubated for 2 hrs by UV absorbance based method; type: cell-based; conditions: erythrocyte
[15] = Selectivity index, ratio of HC10 for induction of hemolysis in human erythrocytes assessed as hemoglobin release incubated for 2 hrs by UV absorbance based method to IC50 for cytotoxicity against human HeLa cells assessed as reduction in cell viability incubated for 1 hr by MTT assay
[16] = test system: A549; experiment: Cytotoxicity against human A549 cells assessed as reduction in cell viability incubated for 1 hr by MTT assay; type: functional, cell-based; conditions: A549, 1 h
[17] = Selectivity index, ratio of HC10 for induction of hemolysis in human erythrocytes assessed as hemoglobin release incubated for 2 hrs by UV absorbance based method to IC50 for cytotoxicity against human A549 cells assessed as reduction in cell viability incubated for 1 hr by MTT assay
[18] = test system: MCF7; experiment: Cytotoxicity against human MCF7 cells assessed as reduction in cell viability incubated for 1 hr by MTT assay; type: functional, cell-based; conditions: MCF7, 1 h
[19] = Selectivity index, ratio of HC10 for induction of hemolysis in human erythrocytes assessed as hemoglobin release incubated for 2 hrs by UV absorbance based method to IC50 for cytotoxicity against human MCF7 cells assessed as reduction in cell viability incubated for 1 hr by MTT assay
[20] = test system: K562; experiment: Cytotoxicity against human K562 cells assessed as reduction in cell viability incubated for 1 hr by MTT assay; type: functional, cell-based; conditions: K562, 1 h
[21] = Selectivity index, ratio of HC10 for induction of hemolysis in human erythrocytes assessed as hemoglobin release incubated for 2 hrs by UV absorbance based method to IC50 for cytotoxicity against human K562 cells assessed as reduction in cell viability incubated for 1 hr by MTT assay
[22] = test system: HL-60; experiment: Cytotoxicity against human HL60 cells assessed as reduction in cell viability incubated for 1 hr by MTT assay; type: functional, cell-based; conditions: HL-60, 1 h
[23] = Selectivity index, ratio of HC10 for induction of hemolysis in human erythrocytes assessed as hemoglobin release incubated for 2 hrs by UV absorbance based method to IC50 for cytotoxicity against human HL60 cells assessed as reduction in cell viability incubated for 1 hr by MTT assay
[24] = Drug localization in cell membrane of human HeLa cells using FITC-labeled compound at cytotoxic IC50 level incubated for 30 mins by confocal laser scanning microscopy; type: cell membranes; conditions: 0.5 h
[25] = Self aggregation at >8 uM in PBS buffer by ANS fluorescent probe based aggregate incorporation assay; type: physicochemical
[26] = test system: HeLa; experiment: Cytotoxicity against human HeLa cells assessed as reduction in cell viability at cytotoxic IC50 in presence of 1.5 to 150 ng/mL sodium heparin incubated for 1 hr by MTT assay; type: functional, cell-based

Substance | IC50 [1] | Activity [2] | Activity [12] | HC10 [14] | Selectivity Index [15] | IC50 [16] | Selectivity Index [17] | IC50 [18] | Selectivity Index [19] | IC50 [20] | Selectivity Index [21] | IC50 [22] | Selectivity Index [23] | further results
H-KELKLLKKLLKLLK-OH | 6.8 µM | inactive | Not Active | 61.7 µM | 9.13 | 13.5 µM | 4.58 | 14.5 µM | 4.25 | 2.4 µM | 25.7 | 3.3 µM | 18.7 | Activity [3]: inactive; Drug uptake [4]: Active; Drug uptake [5]: Active; Activity [6]: Active; Activity [7]: Active; Activity [8]: Active; Drug uptake [9]: Active; Drug uptake [10]: Active; Activity [11]: inactive; Activity [13]: Not Active
H-KKLKLLKKLLKLLK-OH | 3.4 µM | inactive | Not Active | 19.5 µM | 5.74 | 3.5 µM | 5.53 | 6.2 µM | 3.14 | 1.3 µM | 15 | 1.7 µM | 11.5 | 
H-KLEKLLKKLLKLLK-OH | 6.1 µM | inactive | Not Active |  |  |  |  |  |  |  |  |  |  | 
H-KLLELLKKLLKLLK-OH | 5.3 µM | Active | Active |  |  |  |  |  |  |  |  |  |  | 
H-KLLKELKKLLKLLK-OH | 8.6 µM | inactive | Not Active |  |  |  |  |  |  |  |  |  |  | 
H-KLLKLEKKLLKLLK-OH | > 64 µM |  | Not Active |  |  |  |  |  |  |  |  |  |  | 
H-KLLKLLKKELKLLK-OH | > 64 µM |  | Not Active |  |  |  |  |  |  |  |  |  |  | 
H-KLLKLLKKLEKLLK-OH | 11.2 µM | inactive | Not Active |  |  |  |  |  |  |  |  |  |  | 
H-KLLKLLKKLLKELK-OH | 5.1 µM | inactive | Not Active |  |  |  |  |  |  |  |  |  |  | 
H-KLLKLLKKLLKLEK-OH | 21.8 µM | inactive | Not Active |  |  |  |  |  |  |  |  |  |  | 
H-KLLKLLKKLLKLLK-OH | 4.6 µM | 50% |  | 0.52 µM | 0.11 | 3.7 µM | 0.14 | 4.3 µM | 0.12 | 1.4 µM | 0.37 | 2.5 µM | 0.21 | Activity [3]: Active; Drug uptake [24]: Active; Activity [25]: Dose-dependent effect; Activity [13]: Active; Activity [26]: Active
H-KQLKLLKKLLKLLK-OH | 5.2 µM | inactive | Not Active | 35.5 µM | 6.77 | 6.3 µM | 5.59 | 9 µM | 3.95 | 1.8 µM | 19.7 | 2 µM | 17.8 | 
